Measured values reported in patent US10981926B2 (Janssen Pharmaceutica NV, priority 2016, dated 2021).

Key:
[1] = molecular target: T1, wild-type Androgen Receptor (AR-wt) (Homo sapiens (Human), UniProt P10275); test: LNCaP-AR-wt AG reporter assay (agonist mode); format: cell-based; conditions: for Emax: read-out: LNCaP-AR-wt AG MAX % Stim; for EC50: read-out: LNCaP-AR-wt AG pEC50 (converted)
[2] = molecular target: T2, F876L mutant Androgen Receptor (AR-F876L) (Homo sapiens (Human), UniProt P10275, F877L); test: LNCaP-AR-F876L AG reporter assay (agonist mode); format: cell-based; conditions: for Emax: read-out: LNCaP-AR-F876L AG MAX % Stim; for EC50: read-out: LNCaP-AR-F876L AG pEC50 (converted)
T2 sequence (P10275 whole entry F877L): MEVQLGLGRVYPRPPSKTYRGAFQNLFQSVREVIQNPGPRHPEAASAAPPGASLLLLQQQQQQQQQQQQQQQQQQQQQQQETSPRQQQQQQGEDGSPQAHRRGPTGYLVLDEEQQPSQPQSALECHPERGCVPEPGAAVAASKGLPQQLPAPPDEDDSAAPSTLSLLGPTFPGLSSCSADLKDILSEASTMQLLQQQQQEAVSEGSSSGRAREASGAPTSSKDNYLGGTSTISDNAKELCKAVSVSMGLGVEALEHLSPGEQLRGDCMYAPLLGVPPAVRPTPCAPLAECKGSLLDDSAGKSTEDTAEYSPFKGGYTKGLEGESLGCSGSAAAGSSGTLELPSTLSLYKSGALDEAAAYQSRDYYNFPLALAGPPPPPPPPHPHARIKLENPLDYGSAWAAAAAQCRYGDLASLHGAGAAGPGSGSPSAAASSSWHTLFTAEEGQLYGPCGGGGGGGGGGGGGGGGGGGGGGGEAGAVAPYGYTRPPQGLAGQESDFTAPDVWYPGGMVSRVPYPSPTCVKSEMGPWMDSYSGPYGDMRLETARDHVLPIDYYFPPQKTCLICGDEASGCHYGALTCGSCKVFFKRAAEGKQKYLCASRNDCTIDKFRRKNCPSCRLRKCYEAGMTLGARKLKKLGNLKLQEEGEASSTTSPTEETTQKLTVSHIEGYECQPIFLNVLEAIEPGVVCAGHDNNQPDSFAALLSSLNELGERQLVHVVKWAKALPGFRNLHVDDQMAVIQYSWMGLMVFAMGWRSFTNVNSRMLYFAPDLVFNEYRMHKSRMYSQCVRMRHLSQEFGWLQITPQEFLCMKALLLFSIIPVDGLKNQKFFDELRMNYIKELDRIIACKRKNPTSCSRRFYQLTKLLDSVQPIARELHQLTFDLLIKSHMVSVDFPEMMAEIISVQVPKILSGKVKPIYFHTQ

[3] = molecular target: T1, wild-type Androgen Receptor (AR-wt); test: LNCaP-AR-wt ANT reporter assay (antagonist mode); format: cell-based; conditions: for Emax: read-out: LNCaP-AR-wt ANT MAX % Inh; for IC50 / LNCaP-AR-wt ANT pIC50: pIC50 = −Log10(IC50 in Molar); for IC50: read-out: LNCaP-AR-wt ANT pIC50 (converted)
rGABA-gated Cl− channel = test: GABA-Gated Cl Channel Antagonist Radioligand Binding Assay; design: species or system rat; conditions: 10 μM single point, [35S]-TBPS, cerebral cortex membrane homogenates
Method in brief: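 Values give percent inhibition of control specific […] (3 nM) binding at a single 10 μM compound concentration. Cerebral cortex membranes, 120 min, 22° C, phosphate buffer pH 7.4 with 500 mM NaCl; 20 μM picrotoxinin sets nonspecific binding; filtration and scintillation read-out.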

[4] = molecular target: T2, F876L mutant Androgen Receptor (AR-F876L); test: LNCaP-AR-F876L ANT reporter assay (antagonist mode); format: cell-based; conditions: for Emax: read-out: LNCaP-AR-F876L ANT MAX % Inh; for IC50 / LNCaP-AR-F876L ANT pIC50: pIC50 = −Log10(IC50 in Molar); for IC50: read-out: LNCaP-AR-F876L ANT pIC50 (converted)
[5] = agonist mode, maximum % stimulation over tested concentration range
[6] = agonist mode, pEC50 = −Log10(EC50 in Molar)
[7] = antagonist mode, maximum % inhibition of R1881 control response over tested concentration range
[8] = maximum % stimulation (agonist response) over the tested concentration range
[9] = maximum % inhibition of R1881 control response over the tested concentration range

T1 sequence (P10275 whole entry): as the sequence (P10275 whole entry F877L) above, with L877F counted along it

## CN1CCC(Sc2ccc(N3C(=S)N(c4cnc(C#N)c(C(F)(F)F)c4)C(=O)C34CCC4)cc2)CC1 [Cpd 242, 5-[8-[4-[(1-methyl-4-piperidyl)sulfanyl]phenyl]-5-oxo-7-thioxo-6,8-diazaspiro[3.4]octan-6-yl]-3-(trifluoromethyl)pyridine-2-carbonitrile]
[1]; [5]
  Emax: 0.1%
[1]; [6]
  EC50: > 15100 nM
[2]; [5]
  Emax: -0.1%
[2]; [6]
  EC50: > 15100 nM
[3]; [7]
  Emax: 99.9%
[3]; antagonist mode
  IC50: 562 nM
rGABA-gated Cl− channel
  rGABA-gated Cl− channel % inh @10 μM: 60.2%
[4]; [7]
  Emax: 104%
[4]; antagonist mode
  IC50: 245 nM

## N#Cc1ncc(N2C(=O)C3(CCC3)N(c3ccc(OC4CCCO4)cc3)C2=S)cc1C(F)(F)F (stereo not drawn) [Cpd 111, 5-[5-oxo-8-(4-tetrahydrofuran-2-yloxyphenyl)-7-thioxo-6,8-diazaspiro[3.4]octan-6-yl]-3-(trifluoromethyl)pyridine-2-carbonitrile]
[1]; [6]
  EC50: > 15100 nM
[1]; [8]
  Emax: 0.8%
[2]; [6]
  EC50: > 15100 nM
[2]; [8]
  Emax: 0.4%
[3]; antagonist mode
  IC50: 132 nM
[3]; [9]
  Emax: 101%
rGABA-gated Cl− channel
  rGABA-gated Cl− channel % inh @10 μM: 2.8%
[4]; antagonist mode
  IC50: 117 nM
[4]; [9]
  Emax: 101%

## N#Cc1ncc(N2C(=O)C3(CCC3)N(c3ccc4c(cnn4C4CCNCC4)c3)C2=S)cc1C(F)(F)F [Cpd 119, 5-[5-oxo-8-[1-(4-piperidyl)indazol-5-yl]-7-thioxo-6,8-diazaspiro[3.4]octan-6-yl]-3-(trifluoromethyl)pyridine-2-carbonitrile]
[1]; [6]
  EC50: > 15100 nM
[1]; [8]
  Emax: 0.1%
[2]; [6]
  EC50: > 15100 nM
[2]; [8]
  Emax: 2.7%
[3]; antagonist mode
  IC50: 537 nM
[3]; [9]
  Emax: 102%
rGABA-gated Cl− channel
  rGABA-gated Cl− channel % inh @10 μM: 43.1%
[4]; antagonist mode
  IC50: 195 nM
[4]; [9]
  Emax: 100%

## Cl.N#Cc1ncc(N2C(=O)C3(CCC3)N(c3cnc(OC4CCNCC4)nc3)C2=S)cc1C(F)(F)F [Cpd 141, 5-{8-Oxo-5-[2-(piperidin-4-yloxy)-pyrimidin-5-yl]-6-thioxo-5,7-diaza-spiro[3.4]oct-7-yl}-3-trifluoromethyl-pyridine-2-carbonitrile]
[1]; [6]
  EC50: > 15100 nM
[1]; [8]
  Emax: -0.1%
[2]; [6]
  EC50: > 15100 nM
[2]; [8]
  Emax: 0%
[3]; antagonist mode
  LNCaP-AR-wt ANT pIC50: 6.30
[3]; [9]
  Emax: 84.9%
rGABA-gated Cl− channel
  rGABA-gated Cl− channel % inh @10 μM: 56.1%
[4]; antagonist mode
  LNCaP-AR-F876L ANT pIC50: 6.51
[4]; [9]
  Emax: 66.8%

## C=CCN1CCC(Oc2ccc(N3C(=S)N(c4cnc(C#N)c(C(F)(F)F)c4)C(=O)C34CCC4)cn2)CC1 [Cpd 88, 5-[8-[6-[(1-allyl-4-piperidyl)oxy]-3-pyridyl]-5-oxo-7-thioxo-6,8-diazaspiro[3.4]octan-6-yl]-3-(trifluoromethyl)pyridine-2-carbonitrile]
[1]; [6]
  EC50: > 15100 nM
[1]; [8]
  Emax: 0.4%
[2]; [6]
  EC50: > 15100 nM
[2]; [8]
  Emax: 0.4%
[3]; antagonist mode
  IC50: 74.1 nM
[3]; [9]
  Emax: 102%
rGABA-gated Cl− channel
  rGABA-gated Cl− channel % inh @10 μM: 49.7%
[4]; antagonist mode
  IC50: 33.1 nM
[4]; [9]
  Emax: 99.5%

## CN1CCC(Cn2cc3cc(N4C(=S)N(c5cnc(C#N)c(C(F)(F)F)c5)C(=O)C45CCC5)ccc3n2)CC1 [Cpd 129, 5-[8-[2-[(1-methyl-4-piperidyl)methyl]indazol-5-yl]-5-oxo-7-thioxo-6,8-diazaspiro[3.4]octan-6-yl]-3-(trifluoromethyl)pyridine-2-carbonitrile]
[1]; [6]
  EC50: > 15100 nM
[1]; [8]
  Emax: 0.9%
[2]; [6]
  EC50: > 15100 nM
[2]; [8]
  Emax: 0.1%
[3]; antagonist mode
  IC50: 77.6 nM
[3]; [9]
  Emax: 102%
rGABA-gated Cl− channel
  rGABA-gated Cl− channel % inh @10 μM: 64.0%
[4]; antagonist mode
  IC50: 36.3 nM
[4]; [9]
  Emax: 100%

## N#Cc1ncc(N2C(=O)C3(CCC3)N(c3ccc(O[C@H]4C[C@H]5CC[C@@H](C4)N5)cc3)C2=S)cc1C(F)(F)F [Cpd 29, 5-[8-[4-[[(1R,3r, 5S)-8-azabicyclo[3.2.1]octan-3-yl]oxy]phenyl]-5-oxo-7-thioxo-6,8-diazaspiro[3.4]octan-6-yl]-3-(trifluoromethyl)pyridine-2-carbonitrile]
[1]; [6]
  LNCaP-AR-wt AG pEC50: <4.82
[1]; [8]
  Emax: 1.5%
[2]; [6]
  LNCaP-AR-F876L AG pEC50: <4.82
[2]; [8]
  Emax: 3.4%
[3]; antagonist mode
  LNCaP-AR-wt ANT pIC50: 6.05
[3]; [9]
  Emax: 91.5%
rGABA-gated Cl− channel
  rGABA-gated Cl− channel % inh @10 μM: 39.9%
[4]; antagonist mode
  LNCaP-AR-F876L ANT pIC50: 6.40
[4]; [9]
  Emax: 101%

## CN1CC2(CC(Oc3ccc(N4C(=S)N(c5cnc(C#N)c(C(F)(F)F)c5)C(=O)C45CCC5)cc3)C2)C1 [Cpd 97, 5-[8-[4-[(6-methyl-6-azaspiro[3.3]heptan-2-yl)oxy]phenyl]-5-oxo-7-thioxo-6,8-diazaspiro[3.4]octan-6-yl]-3-(trifluoromethyl)pyridine-2-carbonitrile]
[1]; [6]
  EC50: > 15100 nM
[1]; [8]
  Emax: 0%
[2]; [6]
  EC50: > 15100 nM
[2]; [8]
  Emax: 0.2%
[3]; antagonist mode
  IC50: 55 nM
[3]; [9]
  Emax: 102%
rGABA-gated Cl− channel
  rGABA-gated Cl− channel % inh @10 μM: 4.0%
[4]; antagonist mode
  IC50: 25.1 nM
[4]; [9]
  Emax: 99.9%

## COCCn1cc2cc(N3C(=S)N(c4cnc(C#N)c(OC)c4)C(=O)C34CCC4)ccc2n1 [Cpd 175, 3-methoxy-5-[8-[2-(2-methoxyethyl)indazol-5-yl]-5-oxo-7-thioxo-6,8-diazaspiro[3.4]octan-6-yl]pyridine-2-carbonitrile]
[1]; [6]
  EC50: > 15100 nM
[1]; [8]
  Emax: 0.1%
[2]; [6]
  EC50: > 15100 nM
[2]; [8]
  Emax: 0%
[3]; antagonist mode
  IC50: 269 nM
[3]; [9]
  Emax: 101%
rGABA-gated Cl− channel
  rGABA-gated Cl− channel % inh @10 μM: 25.6%
[4]; antagonist mode
  IC50: 141 nM
[4]; [9]
  Emax: 101%

## N#Cc1ncc(N2C(=O)C3(CCC3)N(c3ccc(O[C@H]4CCNC[C@@H]4F)cc3)C2=S)cc1C(F)(F)F (racemic) [Cpd 95, 5-[8-[(3SR, 4SR)-4-[(3-fluoro-4-piperidyl)oxy]phenyl]-5-oxo-7-thioxo-6,8-diazaspiro[3.4]octan-6-yl]-3-(trifluoromethyl)pyridine-2-carbonitrile]
[1]; [6]
  EC50: > 15100 nM
[1]; [8]
  Emax: 0.1%
[2]; [6]
  EC50: > 15100 nM
[2]; [8]
  Emax: 0.3%
[3]; antagonist mode
  IC50: 112 nM
[3]; [9]
  Emax: 101%
rGABA-gated Cl− channel
  rGABA-gated Cl− channel % inh @10 μM: 26.5%
[4]; antagonist mode
  IC50: 44.7 nM
[4]; [9]
  Emax: 99.7%

## COCCN1CCC(Oc2ccc(N3C(=S)N(c4cnc(C#N)c(C(F)(F)F)c4)C(=O)C34CCC4)cc2)CC1 [Cpd 38, 5-[8-[4-[[1-(2-methoxyethyl)-4-piperidyl]oxy]phenyl]-5-oxo-7-thioxo-6,8-diazaspiro[3.4]octan-6-yl]-3-(trifluoromethyl)pyridine-2-carbonitrile]
[1]; [6]
  EC50: > 15100 nM
[1]; [8]
  Emax: 0%
[2]; [6]
  EC50: > 15100 nM
[2]; [8]
  Emax: 0.3%
[3]; antagonist mode
  IC50: 708 nM
[3]; [9]
  Emax: 101%
rGABA-gated Cl− channel
  rGABA-gated Cl− channel % inh @10 μM: 69.2%
[4]; antagonist mode
  IC50: 324 nM
[4]; [9]
  Emax: 99.9%

## CN1CCC(Oc2ncc(N3C(=S)N(c4cnc(C#N)c(C(F)(F)F)c4)C(=O)C34CCC4)cn2)CC1 [Cpd 152, 5-[8-[2-[(1-methyl-4-piperidyl)oxy]pyrimidin-5-yl]-5-oxo-7-thioxo-6,8-diazaspiro[3.4]octan-6-yl]-3-(trifluoromethyl)pyridine-2-carbonitrile]
[1]; [6]
  EC50: > 15100 nM
[1]; [8]
  Emax: 0.2%
[2]; [6]
  EC50: > 15100 nM
[2]; [8]
  Emax: 0.1%
[3]; antagonist mode
  LNCaP-AR-wt ANT pIC50: 6.38
[3]; [9]
  Emax: 101%
rGABA-gated Cl− channel
  rGABA-gated Cl− channel % inh @10 μM: 15.1%
[4]; antagonist mode
  LNCaP-AR-F876L ANT pIC50: 6.37
[4]; [9]
  Emax: 99.9%
